Results: ChEMBL document CHEMBL1201862, “PubChem BioAssay data set” (2004)
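Five concentrations, 48 hours, 96-well plates. GI50 = concentration required for 50% inhibition of growth.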 The source made the active and inactive calls. Cut-off read from the data, not from the text of the source: active = GI50 up to about 1.1 µM and inactive = higher.

What was measured:
Assay in all cases: DTP human tumour cell line panel, 48 h
UACC-257 = test system: UACC-257
HOP-18 = test system: HOP-18
DLD-1 = test system: DLD-1
KM-20L2 = test system: KM-20L2
SNB-78 = test system: SNB-78
M19-MEL = test system: M19-MEL
HOP-92 = test system: HOP-92

Measured: GI50

N#Cc1c(NC(=S)NC(=O)c2ccccc2)nc2c(c1-c1ccccc1)CCC2
inactive: UACC-257 > 100 µM

O=c1c(C(c2ccc(Cl)cc2)c2c(O)c3ccccc3n(-c3ccccc3)c2=O)c(O)c2ccccc2n1-c1ccccc1
inactive: HOP-18 > 100 µM | DLD-1 7.08 µM | KM-20L2 37.6 µM | SNB-78 48.8 µM | M19-MEL 48.1 µM | HOP-92 16.7 µM
